Consider four compounds from patent US20210161929A1, “USES OF VERBASCOSIDE IN TREATMENT OF DIABETIC-ASSOCIATED KDINEY INJURY AND DIABETIC-ASSOCIATED LIVER INJURY” (NANJING UNIVERSITY OF CHINESE MEDICINE, priority 2018, published 2021).

Series [1] relates to HK-2 cells. In words: Proliferation of high-glucose induced HK-2 cells. The series is classed as cell-based, human. Particulars: for effect on the proliferation of HK-2: in vitro studies, discussion; for OD / inhibition ratio %: 48 hours. How it is done:
(§1) Human renal tubular epithelial cells (HK-2) were provided by Nanjing KeyGEN Biotechnology Development Co., Ltd. The complete medium was a low-sugar DMEM with 10% FBS and 1% penicillin-streptomycin solution. The cells were cultured at 37° C. under 5% CO2 and saturated humidity in an incubator. Cells were spread in a 96-well plate and cultured with a 5 mmol/Llow-sugar DMEM for 24 hours. […] The number of cells in each group was detected using a cell counting method after 48 hours of the incubation.

The test system of series [2] is NOX1, NOX2, NOX4, α-SMA, E-cadherin, NF-κB p65, TGF-β1, Smad2, Smad3, Smad4 and Smad7 in HK-2 cells. In words: Protein expression in high-glucose induced HK-2 cells (Western blotting). The series is classed as cell-based, human. As to conditions: for effect on the formation of EMT: in vitro studies, HK-2, discussion. How it is done: as §1, with “The expression quantity of related proteins and mRNA in each cell is detected using Western blotting method and Real-time PCR, and the secretion of related factors in cell supernatant is detected using ELISA. […] Human” for “Human”

Series [3] deals with db/db mice. In words: Biochemical indexes of db/db mice after 6 weeks of intragastric administration. The series is classed as in vivo. Particulars: ig once a day for 6 weeks, metformin 250, irbesartan 50, verbascoside 70.8 mg·kg^−1·d^−1.
Description: 32 male db/db mice and 10 male db/m mice of SPF grade, aged 6-8 weeks and weighing 25-40 g, were purchased from Nanjing Biomedical Research Institute of Nanjing University with an animal license number of SCXK (Su 2015-0001).The mice were raised in an animal room under alternating light and dark every 12 hours with constant temperature of 22±2° C. and humidity of 55±10%.
All mice were adaptively fed for 3 weeks, and db/m mice were used as a control group with a total number of 10. Db/db mice were randomly divided into four groups according to blood sugar and body weight each of 8 mice, and the four groups respectively were a model group (M), a metformin group (EJSG, 250 mg·kg^−1·d^−1), an irbesartan group (EBST, 50 mg·kg^−1·d^−1) and a verbascoside group (MRHTG, 70.8 mg·kg^−1·d^−1). The same amount of saline was intragastrically administered(ig) to the mice in the control group and the model group, and the volume of intragastric administration (ig) was 10 mL·kg^−1, and such administration was performed once a day for continuous 6 weeks.
One day before the end of the experiment, urine was collected in a metabolic cage for 12 hours and the urine volume was recorded. Microalbuminuria content was measured and fasting blood glucose (FBG) of mice in each group was measured by tail vein blood sampling. After drug intervention, mice were anesthetized with intraperitoneal injection of 10% chloral hydrate, and blood was collected from eyeballs. The blood was centrifuged at 3000 rpm and 4° C. for 10 minutes to obtain a serum. The serum was then subjected to determination of serum creatinine, blood urea nitrogen, blood insulin, cholesterol, triglyceride, glutamic-pyruvic transaminase and glutamic-oxalacetic transaminase contents.
Series [4] deals with kidneys of db/db mice. In words: Pathological sections of kidney (HE, PAS) of db/db mice. Type of series: in vivo. Particulars: 6 weeks, irbesartan 50, verbascoside 70.8 mg·kg^−1·d^−1.
Series [5] concerns db/db mice serum. In words: Serum metabonomics (UPLC-QTOF/MS, PLS-DA) of db/db mice. Type of series: in vivo. As to conditions: mouse serum, mean ± SD, n = 6; for Relative distance between administration group and control group in PLS-DA score plot, ESI −: negative ion mode, model group 43.46 ± 3.15; for Relative distance between administration group and control group in PLS-DA score plot, ESI +: positive ion mode, model group 36.62 ± 3.28. The protocol: After 6 weeks of administration, each of the mice was subjected to blood collection by removing eyeballs. The blood sample was centrifuged at 4° C. and 3000 rpm for 10 minutes to obtain a serum. 100 μL of the frozen-thawed serum was mixed uniformly with 300 μL of acetonitrile under vortex for 2 minutes to produce a mixture. The mixture was centrifuged at 4° C. and 13000 rpm for 10 minutes, and the protein precipitate was removed while the supernatant was collected for determination.
Chromatographic conditions: ACQUITY™UPLC BEH C18 column (2.1 mm×100 mm, 1.7 μm); and mobile phase: 0.1% formic acid aqueous solution (A)−acetonitrile (B). The gradient elution of serum was programmed as follows: 0-3 minutes, 95%-55% A; […], 55%-5% A; 13-14 minutes, 5% A. The injection volume was 2 μL and a column temperature of 35° C. was employed.
Mass spectrometry conditions: ESI ion source (ESI^+/ESI^−); mass scanning range: 100-1000 m/z; a capillary voltage of 3.0 kV and a cone voltage of 30 V; an extraction voltage of 2.0 V; ion source temperature and desolvation temperature: respectively 120° C. and 350° C.; cone gas flow rate: 50 L/h; collision energy: 20-50 eV; desolvation gas flow rate: 600 L/h; activation time: 30 ms; and collision gas: high-purity nitrogen. Leucine-enkephalin (ESI^−: 555.2615 m/z, ESI^+: 556.2771 m/z) solution of 200 pg/mL was used as a mass-locking solution at a flow rate of 100 μL/min.
The obtained original mass spectrometry data was processed using Masslynx v4.1 software. The main parameters included: retention time range: 0-14 minutes; m/z range: 100-1000; mass tolerance range: 0.01 Da; peak intensity threshold: 50; mass window: 0.05 Da; retention time window: 0.2 minutes; and automatic detection of 5% peak height and noise. The intensity of each ion was normalized relative to the total ion count to produce a data list consisting of retention time, m/z value and standardized peak area. The data were imported into EZinfo 2.0 for supervised partial least squares discriminant analysis (PLS-DA) and orthogonal partial least squares discriminant analysis (OPLS-DA). The separation of various metabolites between the control group and the model group was shown in the OPLS-DA plot. Potential biomarkers were extracted from the S-plot constructed after OPLS-DA analysis, and each point in the S-plot represented the information of the corresponding variable. The variable importance in the projection (VIP) was measured by the magnitude of the VIP value. The variables were screened according to the VIP value, and the variable with VIP>1 may be selected as a potential biomarker and the molecular formula of the variable of significant difference between the model group and the control group was further identified. Cross validation parameters R^2Y and Q^2were used to describe the PLS-DA score plot, which represented the total explanatory variables of the […] and the predictability of the model, respectively. When a cumulative value of R^2Y and Q^2 was greater than 0.8, the model may be considered to be reliable. The relative distances between other groups and the control group in the PLS-DA score plot were calculated using the average values of all samples (X and Y axes) of the control group as reference points. This quantitative value can be used as an evaluation index of pharmacodynamics and metabonomics to solve many problems in lacking of accurate and quantitative evaluation methods for pharmacodynamics. SPSS 21.0 software was used for statistical analysis of the relevant data. T-test analysis was performed among groups to verify the significance of the difference of potential biomarkers in different groups. The data were expressed as mean±SD, and the data were considered to have a statistical significance with P<0.05. […]

For series [6], the system named is HK-2 cells. In words: Morphology of high-glucose induced HK-2 cells. The series is classed as cell-based, human. As to conditions: 50 μmol/L, 48 hours.
For series [7], the system named is NOX1, NOX2, NOX4, α-SMA, E-cadherin, NF-κB p65, TGF-β1, Smad2, Smad3, Smad4 and Smad7 in HK-2 cells. In words: mRNA expression in high-glucose induced HK-2 cells (Real-time PCR). The series is classed as cell-based, human. Particulars: 50 μmol/L, HK-2 cells with high glucose-induced injuries.
Description: (§2) In the present invention, human renal tubular epithelial (HK-2) cells are selected to establish a high sugar-induced HK-2 cell injury model, and TLR capsules, TLR extract and its major active components verbascoside and catalpol are used for intervention. The expression quantity of related proteins and mRNA in each cell is detected using Western blotting method and Real-time PCR, and the secretion of related factors in cell supernatant is detected using ELISA. In addition, the effect of TLR on regulating oxidative stress reactions of HK-2 cells and TGF-β/smad signal pathway is further explored.
as §1
In general terms: In qPCR the cycle at which signal appears reflects the starting amount.

Series [8] has as its system MCP-1, IL-1β, TNF-α and IL-6 in supernatant of HK-2 cells. In words: Secretion of inflammatory factors in supernatant of HK-2 cells (ELISA). Type of series: cell-based, human. As to conditions: 50 μmol/L, HK-2 cells with high glucose-induced injuries.
Description: as §2, §1
A general note: An ELISA detects its analyte on a solid surface through an enzyme-linked reagent.

The conditions of series [9]: rats; cited from earlier work.
Series [10] relates to nephrotoxic nephritis rats model. Particulars: cited from earlier work.
Setting [11] is: 50 μmol·L^−1, high glucose 30 mmol/L.
Setting [12] is: 10 μmol·L^−1, high glucose 30 mmol/L.
Where [13] appears, read: 25 μmol·L^−1, high glucose 30 mmol/L.
Where [14] appears, read: 100 μmol·L^−1, high glucose 30 mmol/L.

Consider `OC[C@H]1O[C@@H](O[C@@H]2OC=C[C@H]3[C@H](O)[C@@H]4O[C@]4(CO)[C@@H]23)[C@H](O)[C@@H](O)[C@@H]1O` [catalpol, reference compound], for which, in [1], the “effect on the proliferation of HK-2” value was “had an effect on inhibiting”. Besides, the “effect on the formation of EMT” value in series [2] is on record as “had an effect on inhibiting”.

With `CCCCC1=NC2(CCCC2)C(=O)N1Cc1ccc(-c2ccccc2-c2nnn[nH]2)cc1` [irbesartan, reference compound], the “contents of FBG, T-CHO, TG, GOT, GPT, INS, BUN, mALB and Scr” value (from here on “contents of FBG, T-CHO, TG, GOT, GPT”) in series [3] was “tended to be normal”. Moreover, in [1] (setting [11]), the OD turned out to be 0.576 ± 0.02 and the inhibition ratio % was determined as 80.57%. The “results of histological examination of kidney (HE, PAS mean OD)” value in [4] is “close to those of the control group”. In series [5], the “Relative distance between administration group and control group in PLS-DA score plot, ESI −” value stood at 32.16 ± 10; the “Relative distance between administration group and control group in PLS-DA score plot, ESI +” value is recorded as 21.56 ± 8.01. In addition, in series [6], the cell morphologies result is given as “close to those of the control group”.

For the compound `CN(C)C(=N)N=C(N)N` [metformin], in [3], the “contents of FBG, T-CHO, TG, GOT, GPT” value is reported as “tended to be normal”. Further, in [5], the “Relative distance between administration group and control group in PLS-DA score plot, ESI −” value is recorded as 34.94 ± 2.74; the “Relative distance between administration group and control group in PLS-DA score plot, ESI +” value worked out at 36.57 ± 1.53.

Regarding `C[C@@H]1O[C@@H](O[C@@H]2[C@@H](O)[C@H](OCCc3ccc(O)c(O)c3)O[C@H](CO)[C@H]2OC(=O)/C=C/c2ccc(O)c(O)c2)[C@H](O)[C@H](O)[C@H]1O` [verbascoside], in series [7], the “mRNA expressions of NOX1, NOX2, NOX4, α-SMA, E-cadherin, NF-κB p65, TGF-β1, Smad2, Smad3, Smad4 and Smad7” value is listed as “all returned to normal”. In series [3], the “contents of FBG, T-CHO, TG, GOT, GPT” value is recorded as “tended to be normal”. For the same compound, the inhibition ratio % in series [1] (5 μmol·L^−1, high glucose 30 mmol/L) amounted to 25.52%; in series [1] (setting [12]), 39.02%; in [1] (setting [13]), 54.36%; in series [1] (setting [11]) it was 73.95%; in series [1] (setting [14]), 74.65%. Further, the OD in series [1] (5 μmol·L^−1, high glucose 30 mmol/L, control 0.632, model 0.345) stood at 0.418 ± 0.008; in [1] (setting [12]) it was 0.457 ± 0.014; in [1] (setting [13]) it was 0.501 ± 0.015; in series [1] (setting [11]), 0.557 ± 0.012; in series [1] (setting [14]), 0.559 ± 0.01. In series [1] (5, 10, 25, 50, 100 μmol/L), the “proliferation of HK-2 cells under a high glucose condition” value is “could promote the proliferation of HK-2 cells under a high glucose condition, and the promotion of the proliferation was dose-dependent”. Moreover, in [1], the “effect on the proliferation of HK-2” value is listed as “had an effect on inhibiting”. Further, the “expression levels of MCP-1, IL-1β, TNF-α and IL-6 in the supernatant” value in series [8] is “returned to normal”. The oral bioavailability entry in series [9] is “low”. Also, the “protein expressions of NOX1, NOX2, NOX4, α-SMA, E-cadherin, NF-κB p65, TGF-β1, Smad2, Smad3, Smad4 and Smad7” value in [2] (50 μmol/L, HK-2 cells with high-glucose induced injuries) is on record as “all returned to normal”. In [2], the “effect on the formation of EMT” value is “had an effect on inhibiting”. Also, the “results of histological examination of kidney (HE, PAS mean OD)” value in series [4] was “close to those of the control group”. The “Relative distance between administration group and control group in PLS-DA score plot, ESI −” value in [5] was found to be 28.59 ± 3.33. In addition, in series [5], the “Relative distance between administration group and control group in PLS-DA score plot, ESI +” value was 31.62 ± 1.07. Moreover, the cell morphologies result in [6] is listed as “close to those of the control group”. The adverse effects result in series [10] was “without causing obvious adverse effects”. Further, the renal function injury result in [10] is “capable of improving”.
